Common to all, as to type: cell-based, human
Assay [1] has as its system p21 mRNA. The assay is described as follows: drug-induced p21 mRNA expression in whole blood of leukemia and lymphoma patients.
Assay [2] concerns PUMA mRNA. The experiment in a line: drug-induced PUMA mRNA expression in whole blood of leukemia and lymphoma patients. The note with it: 2 hours at 37° C.; for PUMA response: NHL patient, drug concentrations (FIG. 8C).
Assay [3] relates to BAX mRNA. The assay is described as follows: drug-induced BAX mRNA expression in whole blood of leukemia and lymphoma patients. The following applies: drug concentrations (FIG. 3).
Description: The mRNA and cDNA were prepared from whole blood. In brief, home-made 96-well filterplates were placed over collection plates, and 150 μl 5 mM Tris, pH 7.4, was applied. Following centrifugation at 120×g for 1 min at 4° C., 50 μl of blood samples were applied to each well and immediately centrifuged at 120×g for 2 min at 4° C., followed by washing of each well with 300 μl PBS once with centrifugation at 2000×g for 5 min at 4° C. Then, 60 μl stock lysis buffer, containing for example 0.5% N-Lauroylsarcosine, 4×SSC, 10 mM Tris HCl, pH 7.4, 1 mM EDTA, 0.1% IGEPAL CA-630, and 1.791 M guanidine thiocyanate, supplemented with 1% 2-mercaptoethanol (Bio Rad, Hercules, Calif., USA), 0.5 mg/ml proteinase K (Pierce, Rockford, Ill., USA), 0.1 mg/ml salmon sperm DNA (5 Prime Eppendorf/Brinkmann, Westbury, N.Y., USA), 0.1 mg/ml E. coli tRNA (Sigma), a cocktail of 10 mM each of the specific reverse primers shown in Table 1, and standard RNA34 oligonucleotides, were applied to the filterplates, followed by incubation at 37° C. for 10 min. The filterplates were then placed over oligo(dT)-immobilized microplates (GenePlate, RNAture), and centrifuged at 2000×g for 5 min at 4° C. Following overnight storage at 4° C., the microplates were washed with 100 μl plain lysis buffer 3 times, followed by 150 μl of wash buffer (0.5 M NaCl, 10 mM Tris, pH 7.4, 1 mM EDTA) 3 times at 4° C. The cDNA was directly synthesized in each well by adding 30 μl buffer containing 1× RT-butter, 1.25 mM each of dNTP, 4 units rRNasin, and 80 units of MMLV reverse transcriptase (Promega) (without primers), and incubation at 37° C. for 2 hours. The specific primer-primed cDNA existed in solution, and oligo(dT)-primed cDNA stayed immobilized in the microplate. For TaqMan PCR (FIGS. 1, 3, 4), the resultant 4 μl cDNA solution was directly transferred to 384-well PCR plates, to which 5 μl of TaqMan universal master mix (ABI) and 1 μl oligonucleotide cocktail (15 μM each of forward and reverse primer, and 3-6 μM TaqMan probe) were applied, and PCR was conducted in PRISM 7900HT (ABI), with one cycle of 95° C. for 10 min followed by 45 cycles of 95° C. for 30 sec, 55° C. for 30 sec, and 60° C. for 1 min. […] The Ct was determined by analytical software (SDS, ABI).
In assay [4] the test system is PUMA mRNA. The assay is described as follows: drug-induced PUMA mRNA expression in whole blood of healthy adults. The following applies: 10 or 100 μM taxol, 2 hours at 37° C., all individuals (FIG. 13). How it is done:
In 8-well strip microtubes, 1.4 μl of 50× concentrations of drugs or controls (phosphate buffered saline (PBS) or DMSO) were added, and stored at −20° C. until use. […] Seventy μl of fresh heparinized whole blood was added into each well in triplicate, and incubated at 37° C. for 2-8 hours with the cap closed. For radiation treatment, blood was stimulated at designated doses using cesium-137. After each treatment, 50 μl of whole blood was transferred to filterplates as described below.
(§1) The mRNA and cDNA were prepared from whole blood. In brief, home-made 96-well filterplates were placed over collection plates, and 150 μl 5 mM Tris, pH 7.4, was applied. Following centrifugation at 120×g for 1 min at 4° C., 50 μl of blood samples were applied to each well and immediately centrifuged at 120×g for 2 min at 4° C., followed by washing of each well with 300 μl PBS once with centrifugation at 2000×g for 5 min at 4° C. Then, 60 μl stock lysis buffer, containing for example 0.5% N-Lauroylsarcosine, 4×SSC, 10 mM Tris HCl, pH 7.4, 1 mM EDTA, 0.1% IGEPAL CA-630, and 1.791 M guanidine thiocyanate, supplemented with 1% 2-mercaptoethanol (Bio Rad, Hercules, Calif., USA), 0.5 mg/ml proteinase K (Pierce, Rockford, Ill., USA), 0.1 mg/ml salmon sperm DNA (5 Prime Eppendorf/Brinkmann, Westbury, N.Y., USA), 0.1 mg/ml E. coli tRNA (Sigma), a cocktail of 10 mM each of the specific reverse primers shown in Table 1, and standard RNA34 oligonucleotides, were applied to the filterplates, followed by incubation at 37° C. for 10 min. The filterplates were then placed over oligo(dT)-immobilized microplates (GenePlate, RNAture), and centrifuged at 2000×g for 5 min at 4° C. Following overnight storage at 4° C., the microplates were washed with 100 μl plain lysis buffer 3 times, followed by 150 μl of wash buffer (0.5 M NaCl, 10 mM Tris, pH 7.4, 1 mM EDTA) 3 times at 4° C. The cDNA was directly synthesized in each well by adding 30 μl buffer containing 1×RT-buffer, 1.25 mM each of dNTP, 4 units rRNasin, and 80 units of MMLV reverse transcriptase (Promega) (without primers), and incubation at 37° C. for 2 hours. The specific primer-primed cDNA existed in solution, and oligo(dT)-primed cDNA stayed immobilized in the microplate. For TaqMan PCR (FIGS. 1, 3, 4), the resultant 4 μl cDNA solution was directly transferred to 384-well PCR plates, to which 5 μl of TaqMan universal master mix (ABI) and 1 μl oligonucleotide cocktail (15 μM each of forward and reverse primer, and 3-6 μM TaqMan probe) were applied, and PCR was conducted in PRISM 7900HT (ABI), with one cycle of 95° C. for 10 min followed by 45 cycles of 95° C. for 30 sec, 55° C. for 30 sec, and 60° C. for 1 min. For SYBR Green PCR (see FIG. 6), cDNA was diluted 3-4 fold in water, and 4 μl cDNA solution was directly transferred to 384-well PCR plates, to which 5 μl of a master mix (BioRad, Hercules, Calif.) and 1 μl of oligonucleotide cocktail (15 μM each of forward and reverse primer) were applied, and PCR was conducted in PRISM 7900HT (ABI), with one cycle of 95° C. for 10 min followed by 45 cycles of 95° C. for 30 sec and 60° C. for 1 min. Each gene was amplified in separate wells. The Ct was determined by analytical software (SDS, ABI). Although 1×RT buffer was used as a negative control, none of the primer pairs produced non-specific primer-dimers under these experimental conditions. For PUMA in FIG. 8, immobilized cDNA on the oligo(dT)-immobilized microplates was directly amplified in an iCycler (BioRad).
Quantitation of various mRNAs was conducted using the following method. Triplicate aliquots of 50 μl each of heparinized whole blood was applied to 96-well filterplates to trap leukocytes. The filterplates were placed over collection plates, and 150 μl 5 mM Tris, pH 7.4, was applied. […]

Assay [5] has as its system p21 mRNA. The assay is described as follows: drug-induced p21 mRNA expression in whole blood of healthy adults. The note with it: 10 or 100 μM taxol, 2 hours at 37° C., all individuals (FIG. 13).
Description: Blood was obtained from healthy adults and from two leukemic non-Hodgkin's malignant lymphoma patients. U937, KG-1, and Jurkat cells were obtained from American Type Culture Collection (ATCC, Manassas, Va.), and maintained in RPMI 1640 supplemented with 10% fetal calf serum. Of these, U937 cells are a human histiocytic lymphoma cell line, KG-1 cells are a human bone marrow myelogenous leukemia cell line, and Jurkat cells are a human T-cell lymphoblast-like, leukemia derived cell line. […] For human experiments, blood aliquots were stimulated with various anti-cancer drugs at 37° C. for 2 hours, then both p21 and BAX mRNA were measured. The anti-cancer drugs used in this study were clinical drugs, and the concentration of each drug was adjusted to typical blood levels 3-6 hours after intravenous administration.
as §1, with “1× RT-butter,” for “1×RT-buffer,”, “ABI).” for “ABI). Although 1×RT buffer was used as a negative control, none of the primer pairs produced non-specific primer-dimers under these experimental conditions. For PUMA in FIG. 8, immobilized cDNA on the oligo(dT)-immobilized microplates was directly amplified in an iCycler (BioRad).”
In 8-well strip microtubes, 1.4 μl of 50× concentrations of drugs or controls (phosphate buffered saline (PBS) or DMSO) were added, and stored at −20° C. until use. […] Seventy μl of fresh heparinized whole blood was added into each well in triplicate, and incubated at 37° C. for 2-8 hours with the cap closed. For radiation treatment, blood was stimulated at designated doses using cesium-137.

The mark [6] stands for this setting: leukemic lymphoma patient 2, 2 hours at 37° C., drug concentrations (FIG. 3).
Setting [7] is: AML patient, drug concentrations of b94 (FIG. 8B).
Setting [8] is: leukemic lymphoma patient 1, 2 hours at 37° C.
[9] abbreviates: leukemic lymphoma patient 1, 2 hours at 37° C., drug concentrations (FIG. 3).

In the case of `Nc1nc(F)nc2c1ncn2[C@@H]1O[C@H](CO)[C@@H](O)[C@@H]1O` [Fludara, fludarabine], the “p21 mRNA induction” value in assay [1] (setting [6]) is reported as “significant p21 mRNA induction”. For the same compound, the PUMA induction entry in assay [2] (setting [7]) was “huge induction”.
As to `CC[C@]1(O)C[C@@H]2CN(CCc3c([nH]c4ccccc34)[C@@](C(=O)OC)(c3cc4c(cc3OC)N(C)[C@H]3[C@@](O)(C(=O)OC)[C@H](OC(C)=O)[C@]5(CC)C=CCN6CC[C@]43[C@@H]65)C2)C1` [VLB, vinblastine], in assay [1] (AML patient, 2 hours at 37° C., drug concentrations of b94 (FIG. 8B)), the p21 induction entry is “significant p21 induction”.
On to `COc1cccc2c1C(=O)c1c(O)c3c(c(O)c1C2=O)C[C@@](O)(C(=O)CO)C[C@@H]3O[C@H]1C[C@H](N)[C@H](O[C@@H]2CCCCO2)[C@H](C)O1` [THP, pirarubicin], for which the “BAX mRNA induction” value in assay [3] (setting [8]) is reported as “significant induction”. Besides, the “p21 mRNA induction” value in assay [1] (setting [9]) was “significant induction”. Also, the PUMA induction result in assay [2] (setting [7]) is reported as “huge induction”. In assay [2], the PUMA response entry was “strong PUMA response”.
Turning to `COc1cccc2c1C(=O)c1c(O)c3c(c(O)c1C2=O)C[C@@](O)(C(=O)CO)C[C@@H]3O[C@H]1C[C@H](N)[C@H](O)[C@H](C)O1` [Adriacin, doxorubicin], the “p21 mRNA induction” value in assay [1] (setting [6]) is reported as “significant p21 mRNA induction”.
In the case of `O=P1(N(CCCl)CCCl)NCCCO1` (centres unmarked) [Endoxan, cyclophosphamide], the “p21 mRNA induction” value in assay [1] is “induced”.
With `CC(=O)O[C@H]1C(=O)[C@@]2(C)[C@H]([C@H](OC(=O)c3ccccc3)[C@]3(O)C[C@H](OC(=O)[C@H](O)[C@@H](NC(=O)c4ccccc4)c4ccccc4)C(C)=C1C3(C)C)[C@]1(OC(C)=O)CO[C@@H]1C[C@@H]2O` [taxol], in assay [4], the “PUMA mRNA induction” value is “failed to induce”. Also, the “p21 mRNA induction” value in assay [5] is listed as “failed to induce”.
In the case of `[NH2][Pt]1([NH2])[O]C(=O)C2(CCC2)C(=O)[O]1` [Paraplatin, carboplatin], in assay [3] (setting [8]), the “BAX mRNA induction” value is on record as “significant induction”. Moreover, the “p21 mRNA induction” value in assay [1] (setting [9]) was “significant induction”.
With `O=C1c2c(O)ccc(O)c2C(=O)c2c(NCCNCCO)ccc(NCCNCCO)c21` [MIT, mitoxantrone], the “BAX mRNA induction” value in assay [3] (leukemic lymphoma patient 2, 2 hours at 37° C.) was “BAX mRNA induction”. For the same compound, the PUMA induction result in assay [2] (setting [7]) is reported as “huge induction”; in assay [2] (CLL patient, drug concentrations of b94 (FIG. 8A)) it was “induced”. The PUMA response entry in assay [2] is given as “strong PUMA response”.

Values taken from patent US20090011410A1, “METHOD FOR TAILORING ADMINISTRATION OF DRUGS BY QUANTITATION OF MRNA” (priority 2004, published 2009).
